Experimental data reported in patent US12285440B2, “APOE4 impairs myelination via altered cholesterol biosynthesis and transport in oligodendroglia” (Massachusetts Institute of Technology, priority 2021, dated 2025).
“Also recorded” adds a separate entry of the source.

Columns and labels:
iMGLs [1] = test: Calcium imaging of Fluo-4 AM labeled iMGLs with compound uncaging; type: cell-based, human; conditions: uncaging at 405 nm; for amplitude of calcium transients upon uncaging: 1 mM Caged NMDA or 1 mM Caged Glutamate
forebrain spheroids = type: cell-based, human
[2] = tested on: APOE4 iPSC-derived oligodendroglia; test: APOE oligodendroglia drug treatment, bodipy-cholesterol and bodipy lipid droplet staining; type: cell-based, human; conditions: for total bodipy-cholesterol staining: APOE4 oligodendroglia treated two weeks (Atorvastatin 1 μM, Simvastatin 1 μM, Cyclodextrin 10 mM), compared with APOE3/3 oligodendroglia
Description: It was reasoned that inhibiting cholesterol biosynthesis and/or facilitating cholesterol transport in APOE4 oligodendrocytes may reduce intracellular accumulation and improve myelination.
Cells were plated onto a Millipore eight-chamber glass slide, at a density of 250,000 cells per well. Cells were then cultured in Neurobasal media, supplemented with PDGFR-α, NT3 and β-FGF. […] Cells were fixed with 4% PFA, and stained for Bodipy-cholesterol, WGA-555 and DAPI.

iMGLs [3] = test: Whole-cell patch-clamp of iMGLs, ATP-evoked currents; type: cell-based, human; conditions: local application of 100 μM
[4] = tested on: excitatory neurons generated by the rapid induction of NGN2 expression; test: MEA recording of NGN2-induced neurons treated with cholesterol; type: cell-based, human
Text: (§1) Cholesterol is essential for proper neuronal physiology, and cholesterol depletion is known to impair neurotransmission. Since we detect extracellular accumulation of cholesterol in APOE4 iMGLs, we wondered what the impact of exogenous cholesterol treatment would be to these neuronal cultures. Due to the extended culture times of spheroids, we opted to conduct these studies with excitatory neurons generated by the rapid induction of NGN2 expression. […] To further dissect the physiological process that renders neurons less excitable upon treatment with exogenous cholesterol, we next assessed iPSC-derived neurons by patch-clamp electrophysiology. […] Potentiation of Kir currents is aligned with our observation in cells recorded on MEA, as strong inwardly-rectifying potassium currents are known to hyperpolarize resting membrane potentials and decrease neuronal excitability.
Dissociated spheroids or NGN2-induced neurons were plated as a 10 μl droplet in Poly-D-Lysine (Sigma-Aldrich) coated wells of a CytoView MEA 48-well plate (Axion BioSystems; M768-tMEA-48B). […] Spontaneous neural activity was recorded for 30 minutes at a sampling rate of 12.5 kHz and an adaptive threshold set at 5.5 times the standard deviation of baseline noise was used for spike detection. […]

[5] = tested on: dissociated spheroid cultures; test: Patch-clamp electrophysiology of dissociated spheroid neurons with exogenous cholesterol; type: cell-based, human; conditions: 1 mM cholesterol in external solution
Text: as §1
Whole-cell patch-clamp recordings of neurons were performed at 6 to 8 weeks after spheroid dissociation and 2D plating, or for iMGLs after 2 to 4 weeks of iMGL differentiation. […] Membrane potentials were typically kept between −50 mV to −70 mV depending on whether neurons or iMGLs were being recorded. In voltage-clamp mode, currents were recorded with voltage steps ranging from −160 mV to +80 mV. […] ATP-evoked currents were recorded by local application of 100 μM (Sigma-Aldrich; #A9187). […]

[6] = tested on: APOE4 oligodendroglia/iNeuron co-cultures; test: In vitro myelination assay, oligodendroglia/iNeuron co-cultures, MBP and neurofilament staining; type: cell-based, human; conditions: APOE4 co-cultures treated 6 weeks
Text: To further investigate the effect of APOE4 on myelination an in vitro model of myelination was developed that employs the genetically controlled isogenic APOE cells derived from CRISPR-edited iPSCs. To achieve this, iPSC-derived oligodendroglia were co-cultured with neurons induced from iPSCs using NGN2 overexpression (iNeurons) in a three-dimensional extracellular matrix that allows each cell type to interact with other cells and self-assemble into tissue-like structures (FIG. 10D). After 2 weeks in these 3D co-cultures, MBP-positive oligodendroglia spread across the culture and engage neurofilament-positive axons (FIG. 10E). After 6 weeks in culture, myelin-associated proteins 04 and Mbp encircled numerous neurofilaments, mimicking biological processes critical to myelination (FIG. 10E). […] Therefore, it was sought to use this in vitro myelination assay to assess the effect of APOE4 on myelin-associated phenotypes in human cells. Consequently, oligodendroglia/iNeuron co-cultures from two different APOE4/4 and APOE3/3 isogenic sets of iPSC-derived cells were established. […]
To determine whether cyclodextrin-induced cholesterol reduction in APOE4 oligodendroglia affected myelination, APOE4 oligodendroglia/iNeuron co-cultures were treated with cyclodextrin for 6 weeks and then assessed myelination phenotypes (FIG. 4C). […]

APOE4KI mice [7] = test: Cyclodextrin treatment of APOE4KI mice, brain immunohistochemistry (bodipy-cholesterol, Olig2, Mbp); type: in vivo, mouse; conditions: 2 g/kg subcutaneous twice a week for eight weeks, vs saline control
Description: It was next assessed whether cyclodextrin could reduce aberrant cholesterol accumulation in oligodendrocytes and promote increased myelination in APOE4KI mice in vivo. APOE4KI mice were treated with subcutaneous injections of cyclodextrin or saline (control) for eight weeks (n=5 control and 4 cyclodextrin treated mice). […] To more directly assess myelination in cyclodextrin treated APOE4 mice, TEM-based ultrastructural analysis was performed.
Animals were anaesthetized via exposure to gaseous isoflurane, and transcardially perfused with ice-cold PBS. The brains were dissected out, one hemisphere frozen in dry ice, and one hemisphere drop-fixed in 4% paraformaldehyde. The post-fixed hemisphere was sliced at a thickness of 40 μm using a Leica vibratome. Slices were blocked with a buffer containing 0.3% Triton-X and 10% normal donkey serum for two hours at room temperature, before being incubated with primary antibody overnight at 4° C. Slices were then washed with PBS and incubated with secondary antibody for two hours at room temperature, washed with PBS again, and mounted. Slides were imaged using a Zeiss LSM 880 microscope, and analyzed using the ImageJ “FIJI” or Imaris softwares. Human brain tissue slices were further incubated with TrueBlack for five minutes prior to mounting, to reduce auto-fluorescence.
(§2) APOE4KI female mice were injected subcutaneously with either 200 μL Cyclodextrin (2 g/kg) or 200 μL saline, twice a week for eight weeks.

APOE4KI mice [8] = test: Novel object recognition task; type: in vivo, mouse; conditions: female APOE4KI mice, control n=12, cyclodextrin n=14
Description: (§3) To investigate whether the increased myelination observed in cyclodextrin treated APOE4KI mice could promote functional improvements, the novel object recognition assay was performed to evaluate learning and memory (FIG. 4G)^57.
as §2
(§4) Mice were placed in an open field arena and allowed to move freely for ten minutes. The total distance moved and time mice spent in the center of the arena was tracked using the EthoVision XT software from Noldus. 24 hours later, mice were then placed into the same arena containing two objects and allowed to freely investigate both for a period of eight minutes. After an interval of four hours, mice were then placed back in the chamber with one novel object and one familiar object. The preference index was calculated by determining how much time an animal spent with its nose interacting with the novel object, divided by the total time an animal spent interacting with either object.

APOE4KI mice [9] = test: Open field task; type: in vivo, mouse; conditions: cyclodextrin-treated vs control APOE4KI mice
Description: as §3, §2, §4

CYP46A1 = conditions: APOE4 oligodendroglia treated two weeks, vs untreated APOE4 controls
APOE4KI mice [10] = test: Cyclodextrin treatment of APOE4KI mice, TEM of corpus callosum (g-ratio); conditions: n=150 neurons, 2 g/kg subcutaneous twice a week for eight weeks, vs control mice

N[C@@H](CCC(=O)O)C(=O)O [glutamate]
amplitude of calcium transients upon uncaging (iMGLs [1]): increase the amplitude of calcium transients

CN[C@H](CC(=O)O)C(=O)O [NMDA]
amplitude of calcium transients upon uncaging (iMGLs [1]): increase the amplitude of calcium transients

NC1=N[C@H](O)[C@H]2[C@H]3O[C@]4(O)O[C@@H]([C@@H](O)[C@@]2(N1)[C@@H]4O)[C@]3(O)CO [tetrodotoxin]
increase in iMGL calcium transients mediated by stimulated spheroid media (forebrain spheroids): reduced to levels of non-stimulated spheroid media

CC(C)c1c(C(=O)Nc2ccccc2)c(-c2ccccc2)c(-c2ccc(F)cc2)n1CC[C@@H](O)C[C@@H](O)CC(=O)O [atorvastatin]
total bodipy-cholesterol staining [2]: significantly (p=0.0085 and 0.0450) higher than APOE3/3 oligodendroglia

Nc1ncnc2c1ncn2[C@@H]1O[C@H](COP(=O)(O)OP(=O)(O)OP(=O)(O)O)[C@@H](O)[C@H]1O [ATP]
calcium transients upon ATP uncaging (iMGLs [1]; 1 mM Caged ATP): robust increase in calcium transients | response to extracellular ATP, whole-cell patch-clamp (iMGLs [3]): iMGLs sensed extracellular ATP

CC(C)CCC[C@@H](C)[C@H]1CC[C@H]2[C@@H]3CC=C4C[C@@H](O)CC[C@]4(C)[C@H]3CC[C@]12C [cholesterol]
neuronal activity on MEA [4]: phenocopied our observation of treatment with APOE4 iMGL conditioned media | resting membrane potential (RMP) [5]: significantly hyperpolarized the resting membrane potential | I-V curve, inwardly-rectifying potassium (Kir) currents ([5]; vs non-treated neurons): greater inwardly-rectifying potassium (Kir) currents

2-hydroxypropyl-β-cyclodextrin
total bodipy-cholesterol staining [2]: reduced bodipy-cholesterol staining that was not significantly different (p>0.9999) from that in APOE3 oligodendroglia | neutral lipid droplets measured by bodipy staining ([2]; cyclodextrin-treated vs control APOE4 oligodendroglia): significant (p<0.0001) reduction | number of intracellular droplets of bodipy-cholesterol ([2]; cyclodextrin-treated vs control APOE4 oligodendroglia, normalized to nuclei): significant (p=0.0092) reduction | levels of MBP localization with neurofilament, comparison with APOE3 co-cultures [6]: not significantly (p=0.0794) different from APOE3 co-cultures | MBP staining localized along neurofilament staining ([6]; untreated APOE4 18.89%, APOE3 62.42%, p=0.0274): 43.44%+/−5.382 | Mbp staining (APOE4KI mice [7]): significantly (p=0.0008) increased Mbp staining; also recorded: overall increase in Mbp | bodipy-cholesterol staining co-localizing within 1 μm of Mbp staining (APOE4KI mice [7]): significant (p=0.0423) increase; also recorded: increase in cholesterol-myelin colocalization | bodipy-cholesterol staining accumulated around Olig2-positive nuclei (APOE4KI mice [7]; hippocampus): significantly (p=0.0038) reduced compared to control mice; also recorded: reduction of bodipy-cholesterol staining in cyclodextrin-treated mice | preference for novel object (APOE4KI mice [8]): significantly (p=0.0466) increased preference for interacting with the novel object | total distance moved (APOE4KI mice [9]; p=0.1275): similar | velocity (APOE4KI mice [9]; p=0.1711): similar | duration in the center of the cages (APOE4KI mice [9]; p=0.4478): similar | expression of CYP46A1 (CYP46A1): significant (p=0.0011) upregulation | g-ratio (APOE4KI mice [10]): significantly (p<0.0001) lower g-ratio; also recorded: decrease in g-ratio
